Results: paper PMC8027081, “Structural Basis of VSIG3: The Ligand for VISTA” (Frontiers in Immunology, 2021)

B1: human VSIG3 extracellular domain (residues 23-241) expressed in E. coli, refolded (domain or fragment, UniProt Q5DX21 23-241, looked up)
chain: LEVSESPGSIQVARGQPAVLPCTFTTSAALINLNVIWMVTPLSNANQPEQVILYQGGQMFDGAPRFHGRVGFTGTMPATNVSIFINNTQLSDTGTYQCLVNNLPDIGGRNIGVTGLTVLVPPSAPHCQIQGSQDIGSDVILLCSSEEGIPRPTYLWEKLDNTLKLPPTATQDQVQGTVTIRNISALSSGLYQCVASNAIGTSTCLLDLQVISPQPRNIG
notes: VSIG3 (IgSF11), human, UniProt Q5DX21, residues 23-241 (extracellular domain without the 22-residue signal peptide); No PDB id is printed; also called VSIG3-ECD; IgSF11; not shown: His tag (from the vector pET28a)

Key:
human VSIG3-ECD = target: T1, human VSIG3-ECD (Homo sapiens, UniProt Q5DX21); assay: microscale thermophoresis; format: binding; conditions: room temperature, 30 min; RED-NHS labelled protein
T1 construct: gene IGSF11; extracellular domain (IgV + IgC2), signal peptide (22 aa) removed, His-tagged; RED-NHS labelled for MST; dimer in crystal
T1 sequence (Q5DX21 23-241): B1 chain

[1] = target: the molecule itself; assay: crystal structure; hanging drop vapor diffusion, 4°C, 0.1 M sodium citrate tribasic dihydrate pH 5.6, 0.01 M iron(III) chloride, 10% Jeffamine M-600; VSIG3 at 3 mg/mL; 2.64 Å

Molecule	Kd (human VSIG3-ECD) [µM]	stoichiometry N [1]
O=C(CCn1c(SCC(=O)NC2CCCC2)nc2ccccc2c1=O)NC1CCCCC1 [K284-3046]	11.6 ± 9.12	
B1		2
